Experimental data: PMC10216341 (Brain Sciences, 2023)
Read-outs that look alike come from different tables or passages of the source.

Key:
SH-SY5Y cells [1] = experiment: MTT cell viability assay; type: cell-based, human; details: read-out: MTT IC50
Experimental: (§1) SH-SY5Y cells were differentiated as described by Encinas et al. (2000) after seeding onto either poly-D-Lysine hydrobromide (PDL) (50 µg/mL) (P6407, Sigma-Aldrich, Poole, UK) -coated cell cultureware or in 96-well microtitre plates (6005649, Perkin Elmer, Groningen, The Netherlands) with 10% FBS media and after settling, cells were grown to 60% confluency.
In brief, 3 × 10^4 cells/well were grown in laminin-coated 96-well clear-bottom tissue culture plates. Undifferentiated cells were challenged with each agent for 24 h within the concentration ranges specified by diluting each compound in the cell culture medium. Differentiated cells that were grown on 96-well plates were treated with each compound diluted in cell culture medium. After incubation with the compounds, spent media was removed and then replaced with the corresponding media for differentiated or undifferentiated cells containing 10% of 5 mg/mL MTT and incubated for 4 h. Wells that only received 10% MTT and respective growth media served as background controls. The formazan crystals generated were suspended in 1:1 DMSO and isopropanol solution and the absorbance of wells read at 570 nm using a spectrophotometer (Multiskan Spectrum, Thermo Electron Corporation, Vantaa, Finland). Experiments were performed in triplicates from which an average was taken, and blank (negative control) values were subtracted. Cell viability was expressed as a percentage of survival […] from at least five repeated experiments. The concentration of agent producing a 50% inhibition of cell viability (IC50 values) was obtained from the concentration-response curves and expressed as means ± standard error of the mean (SEM).

SH-SY5Y cells [2] = experiment: Lactate dehydrogenase (LDH) assay, extracellular LDH; type: cell-based, human
Experimental: as §1
The production of active extracellular LDH in response to pesticide exposures was measured using an LDH assay kit (ab65393, Abcam, Cambridge, UK) according to the manufacturer’s instructions. After agent treatment (1–200 µM, or vehicle control), 50 µL of spent media was removed and LDH activity was measured spectrophotometrically at 450 nm (Multiskan Spectrum, Thermo Electron Corporation, Finland). Assays were performed in triplicates, with blank values from a negative control subtracted from test values. IC50 values were obtained from the concentration-response curves and expressed as means ± standard error of the mean (SEM). Experiments were performed with an n-number of at least five.

SH-SY5Y cells [3] = experiment: Intracellular ATP levels, luminescence assay; type: cell-based, human
Experimental: as §1
Undifferentiated and differentiated cells that were grown in 6-well plates were treated with MTT cell viability inhibition concentrations that produced 10, 20, 50, and an 80% loss of cell viability. Intracellular ATP levels were quantified using an ATP luminescence assay kit (ATP Bioluminescence Assay Kit CLS II (product 11 699 695 001, Roche, Germany), according to the manufacturer’s protocol. ATP standards were prepared according to the kit protocol across a concentration range of 1 × 10^−4 to 1 × 10^−10 M and after the addition of luciferase reagent to each well, the luminescence was measured using a luminometric plate reader (Thermo Fisher Scientific, Fluoroskan Ascent FC, Vantaa, Finland) using an integration time of 1 s. The ATP content in control and pesticide-treated samples were interpolated from the ATP standard curve. Experiments were performed in triplicates and five individual experiments were undertaken from which a mean was calculated, with blank values subtracted.

[4] = tested on: differentiated SH-SY5Y cells; experiment: Neurite extension (neurite length) in differentiated cells, microscopy; type: cell-based, human; details: 24 h, read-out: Neurite Retraction IC50
Experimental: SH-SY5Y cells were seeded at 5 × 10^5 cells/well in 12-well poly-D-Lysine coated plates and grown for 24 h to ensure cell adhesion. Cells were then treated with pesticides in differentiation media for 24 h. Cell images were captured using a phase contrast microscope (Olympus, DP70, London, UK). Cells were considered differentiated if each neuronal cell contained at least one process that was longer than its cell body. The neurite length from 100 randomly chosen cells were measured in five selected regions of each well using the neurite tracer tool in Image J (Image J 1.49k, National Institute of Health, Bethesda, MD, USA). Results are expressed as mean percentage neurite length (±SEM) relative to vehicle-control treated cells.

rat = details: cited from earlier work
[5] = WHO class; cited from earlier work
[6] = biological target: T1, acetylcholinesterase (AChE) (Homo sapiens, UniProt P22303); experiment: cell-based; details: 24 h
T1 construct: endogenous in cells; host or cells: SH-SY5Y human neuroblastoma cells (ECACC-94030304), undifferentiated and differentiated
T1 sequence (P22303 32-614): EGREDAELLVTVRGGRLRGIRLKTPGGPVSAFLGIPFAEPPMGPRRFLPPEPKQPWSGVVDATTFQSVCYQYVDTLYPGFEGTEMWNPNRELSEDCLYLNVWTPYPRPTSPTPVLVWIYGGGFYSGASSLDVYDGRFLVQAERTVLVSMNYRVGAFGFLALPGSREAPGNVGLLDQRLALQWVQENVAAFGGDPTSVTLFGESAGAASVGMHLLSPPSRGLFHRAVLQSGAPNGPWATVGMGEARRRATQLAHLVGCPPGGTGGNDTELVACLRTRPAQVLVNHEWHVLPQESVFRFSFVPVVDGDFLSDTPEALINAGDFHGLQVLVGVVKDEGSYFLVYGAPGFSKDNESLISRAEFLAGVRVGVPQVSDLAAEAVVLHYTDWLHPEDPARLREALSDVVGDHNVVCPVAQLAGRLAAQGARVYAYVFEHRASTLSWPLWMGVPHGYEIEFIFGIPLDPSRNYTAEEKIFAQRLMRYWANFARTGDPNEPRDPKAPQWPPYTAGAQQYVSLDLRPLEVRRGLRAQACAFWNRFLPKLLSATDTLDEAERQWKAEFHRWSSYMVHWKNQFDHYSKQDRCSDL
Experimental: Inhibition of AChE was assessed using an Ellman’s assay modified for harvested cells [32, 33]. […] The supernatant was discarded, and the resultant cell pellet was retained and resuspended in 1 mL of potassium phosphate buffer pH 8.0. A volume of 100 µL was then assayed as a 1:1 mixture with ATCI and DTNB. […] Since the absorbance background increased with time, the associated absorbance of buffer blanks was subtracted at each time point for each data point. Corrected absorbance readings for each treatment were normalized to the means of the vehicle control and AChE activity presented as a percentage relative to the vehicle control.

[7] = Homo sapiens, differentiated SH-SY5Y cells

Question: For `CNC(=O)O/N=C/C(C)(C)SC` [Aldicarb, [(E)-(2-methyl-2-methylsulfanylpropylidene)amino] N-methylcarbamate], which IC50 (SH-SY5Y cells [1]; [7]) is on record?
Answer: Its IC50 is 31.6 ± 2.2 µM.

Question: What about the IC50 (SH-SY5Y cells [1]; Homo sapiens, undifferentiated SH-SY5Y cells, 24 h exposure) of the same molecule?
Answer: Its IC50 is 39.6 ± 3.6 µM.

Question: What about the IC50 (SH-SY5Y cells [2]; Homo sapiens, SH-SY5Y, 24 h, differentiated SH-SY5Y cells, 24 h exposure, read-out: LDH IC50) of the same molecule?
Answer: Its IC50 is 29.9 ± 1.6 µM.

Question: What about the IC50 (SH-SY5Y cells [2]; Homo sapiens, SH-SY5Y, 24 h, undifferentiated SH-SY5Y cells, 24 h exposure, read-out: LDH IC50) of the same molecule?
Answer: The IC50 was 35.4 ± 1.4 µM.

Question: And the IC50 (SH-SY5Y cells [3]; Homo sapiens, SH-SY5Y, differentiated SH-SY5Y cells, read-out: ATP IC50)?
Answer: The IC50 was 32.4 ± 1.2 µM.

Question: What about the IC50 (SH-SY5Y cells [3]; Homo sapiens, SH-SY5Y, undifferentiated SH-SY5Y cells, read-out: ATP IC50) of the same molecule?
Answer: Its IC50 is 40.2 ± 2.9 µM.

Question: What about the IC50 [4, 7] of the same molecule?
Answer: Its IC50 is 30.2 ± 4.7 µM.

Question: What about the “rat oral LD50” value (rat) of the same molecule?
Answer: Its value is 0.65 mg/kg.

Question: What about the hazard classification [5] of the same molecule?
Answer: Its hazard classification is “Class Ia”.

Question: Which results are given for `CCOP(=O)(OCC)Oc1nc(Cl)c(Cl)cc1Cl` [CPO, diethyl (3,5,6-trichloropyridin-2-yl) phosphate]?
Answer: IC50 (SH-SY5Y cells [1]; differentiated SH-SY5Y cells): 17.3 ± 0.9 µM; IC50 (SH-SY5Y cells [1]; undifferentiated SH-SY5Y cells, 24 h exposure): 29.4 ± 2.1 µM; IC50 (SH-SY5Y cells [2]; differentiated SH-SY5Y cells, 24 h exposure, read-out: LDH IC50): 17.2 ± 1.1 µM; IC50 (SH-SY5Y cells [2]; undifferentiated SH-SY5Y cells, 24 h exposure, read-out: LDH IC50): 27.8 ± 2.1 µM; IC50 (SH-SY5Y cells [3]; differentiated SH-SY5Y cells, read-out: ATP IC50): 18.8 ± 0.1 µM; IC50 (SH-SY5Y cells [3]; undifferentiated SH-SY5Y cells, read-out: ATP IC50): 29.6 ± 2.1 µM; IC50 ([4]; differentiated SH-SY5Y cells): 10.8 ± 0.1 µM

Question: With `CCOP(=S)(OCC)Oc1nc(Cl)c(Cl)cc1Cl` [chlorpyrifos, Chlorpyrifos] as the molecule, how does the “rat oral LD50” value (rat) read?
Answer: The value was 82 mg/kg.

Question: Which IC50 (SH-SY5Y cells [1]; Homo sapiens, SH-SY5Y, 24 h) does the source give for `COP(=O)(OC)SCn1c(=O)oc2cc(Cl)cnc21` [AZO, 6-chloro-3-(dimethoxyphosphorylsulfanylmethyl)-[1,3]oxazolo[4,5-b]pyridin-2-one] here?
Answer: Its IC50 is 26.9 ± 1.1 µM.

Question: What about the IC50 (SH-SY5Y cells [1]; Homo sapiens, SH-SY5Y) of the same molecule?
Answer: Its IC50 is 19.6 ± 0.5 µM.

Question: And the IC50 (SH-SY5Y cells [2]; Homo sapiens, SH-SY5Y, 24 h, read-out: LDH IC50, differentiated SH-SY5Y cells, 24 h exposure)?
Answer: The IC50 was 20.5 ± 1.6 µM.

Question: What about the IC50 (SH-SY5Y cells [2]; Homo sapiens, SH-SY5Y, 24 h, read-out: LDH IC50, undifferentiated SH-SY5Y cells, 24 h exposure) of the same molecule?
Answer: The IC50 was 26.5 ± 0.9 µM.

Question: And the IC50 (SH-SY5Y cells [3]; Homo sapiens, SH-SY5Y, read-out: ATP IC50, differentiated SH-SY5Y cells)?
Answer: Its IC50 is 20.7 ± 0.1 µM.

Question: And the IC50 (SH-SY5Y cells [3]; Homo sapiens, SH-SY5Y, read-out: ATP IC50, undifferentiated SH-SY5Y cells)?
Answer: The IC50 was 26 ± 0.6 µM.

Question: What about the IC50 ([4]; Homo sapiens, SH-SY5Y) of the same molecule?
Answer: Its IC50 is 16.5 ± 1.3 µM.

Question: And the IC50 ([6]; AChE Inhibition IC50, differentiated SH-SY5Y cells)?
Answer: Its IC50 is 0.22 µM.

Question: What about the IC50 ([6]; AChE Inhibition IC50, undifferentiated SH-SY5Y cells) of the same molecule?
Answer: Its IC50 is 0.3 µM.

Question: And the “rat oral LD50” value (rat)?
Answer: Its value is 1180 mg/kg.

Question: And the hazard classification [5]?
Answer: The hazard classification was “Class II”.
